Results: PubChem BioAssay AID330 (DTP/NCI, 2004)
Values joined by “and” are separate entries in the source; they are usually repeats but may differ in a detail not shown here. Equal values may be shown once. Toxic doses and inconclusive results are not listed. Rule for the calls: active = survival T/C of 150% or more; inactive = T/C below 125% in these data.

Test system: P388 leukemia ip, CD2F1 mice, survival T/C
Assay: NCI In Vivo Anticancer Drug Screen. Data for tumor model P388 Leukemia (intraperitoneal) in CD2F1 (CDF1) mice
Conditions: endpoint: median survival time, higher = longer survival
Procedure, shortened: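 Mice carrying the transplanted tumor received test compound or vehicle. Survival was recorded in each group, and the value is the treated-group measurement divided by that of the vehicle-treated control group.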

[1] = dose: 25.0 mg/kg/injection, schedule: Q01DX009 (ip), vehicle: saline
[2] = dose: 50.0 mg/kg/injection, schedule: Q01DX009 (ip), vehicle: Klucel (hydroxypropylcellulose) (HPC)
[3] = dose: 100.0 mg/kg/injection, schedule: Q01DX009 (ip), vehicle: Klucel (hydroxypropylcellulose) (HPC)
[4] = dose: 200.0 mg/kg/injection, schedule: Q01DX009 (ip), vehicle: Klucel (hydroxypropylcellulose) (HPC)

Measured: T/C

Nc1nc(N)c(N=Nc2ccccc2)c(=O)[nH]1
inactive: dose: 50.0 mg/kg/injection, schedule: Q01DX009 (ip), vehicle: saline with Tween-80 100 % of control | dose: 50.0 mg/kg/injection, schedule: Q04DX003 (ip), vehicle: saline with Tween-80 86 % of control | dose: 100.0 mg/kg/injection, schedule: Q01DX009 (ip), vehicle: saline with Tween-80 90 % of control | dose: 100.0 mg/kg/injection, schedule: Q04DX003 (ip), vehicle: saline with Tween-80 95 % of control | dose: 200.0 mg/kg/injection, schedule: Q01DX009 (ip), vehicle: saline with Tween-80 115 % of control | dose: 200.0 mg/kg/injection, schedule: Q04DX003 (ip), vehicle: saline with Tween-80 95 % of control

CCC(=O)NC
inactive: [1] 97 % of control | dose: 50.0 mg/kg/injection, schedule: Q01DX009 (ip), vehicle: saline 97 % of control | dose: 100.0 mg/kg/injection, schedule: Q01DX009 (ip), vehicle: saline 106 % of control | dose: 200.0 mg/kg/injection, schedule: Q01DX009 (ip), vehicle: saline 107 % of control

C[C@H]1C(=O)CCC2[C@]3(C)CCC4(CO)[C@@H]5CC(C)(C)C(=O)C[C@]5(C)CC[C@]4(C)C3CC[C@@]21C (some centres undefined)
inactive: dose: 7.75 mg/kg/injection, schedule: Q01DX005 (ip), vehicle: Klucel (hydroxypropylcellulose) (HPC) 98 % of control | dose: 15.5 mg/kg/injection, schedule: Q01DX005 (ip), vehicle: Klucel (hydroxypropylcellulose) (HPC) 91 % of control | dose: 31.0 mg/kg/injection, schedule: Q01DX005 (ip), vehicle: Klucel (hydroxypropylcellulose) (HPC) 89 % of control

Cc1ccc2nc(NC(=S)NCCNC(=S)Nc3ccc4cc(C)ccc4n3)ccc2c1
inactive: [2] 94 % of control | [3] 92 % of control | [4] 90 % of control

CCCc1cc2c(=O)c(C(=O)OC)c[nH]c2cc1N(CC)CC
inactive: dose: 50.0 mg/kg/injection, schedule: Q01DX005 (ip), vehicle: Klucel (hydroxypropylcellulose) (HPC) 96 % of control | dose: 100.0 mg/kg/injection, schedule: Q01DX005 (ip), vehicle: Klucel (hydroxypropylcellulose) (HPC) 100 % of control | dose: 200.0 mg/kg/injection, schedule: Q01DX005 (ip), vehicle: Klucel (hydroxypropylcellulose) (HPC) 104 % of control

N#CC1C(=O)NC(=O)C(C#N)C1c1c(Cl)cccc1Cl (centres undefined)
inactive: [2] 101 % of control | [3] 99 % of control | [4] 99 % of control

O=P1(c2ccccc2)CCCCN1 (centres undefined)
inactive: dose: 100.0 mg/kg/injection, schedule: Q04DX003 (ip), vehicle: saline 104 % of control | dose: 200.0 mg/kg/injection, schedule: Q04DX003 (ip), vehicle: saline 110 % of control | dose: 400.0 mg/kg/injection, schedule: Q04DX003 (ip), vehicle: saline 110 % of control

Nc1nnnn1CCCCO
inactive: dose: 50.0 mg/kg/injection, schedule: Q01DX005 (ip), vehicle: saline 104 % of control | dose: 100.0 mg/kg/injection, schedule: Q01DX005 (ip), vehicle: saline 103 % of control | dose: 200.0 mg/kg/injection, schedule: Q01DX005 (ip), vehicle: saline 111 % of control | dose: 400.0 mg/kg/injection, schedule: Q01DX005 (ip), vehicle: saline 120 % of control

N=Nc1c(OC(=O)Nc2ccccc2)[nH]c2c(Cl)cc(Cl)cc12
inactive: dose: 50.0 mg/kg/injection, schedule: Q01DX005 (ip), vehicle: saline with Tween-80 100 % of control | dose: 100.0 mg/kg/injection, schedule: Q01DX005 (ip), vehicle: saline with Tween-80 100 % of control | dose: 200.0 mg/kg/injection, schedule: Q01DX005 (ip), vehicle: saline with Tween-80 98 % of control

O=C(O)c1cn2ccccc2c1[N+](=O)[O-]
inactive: dose: 100.0 mg/kg/injection, schedule: Q04DX002 (ip), vehicle: saline with Tween-80 94 % of control | dose: 200.0 mg/kg/injection, schedule: Q04DX002 (ip), vehicle: saline with Tween-80 92 % of control | dose: 400.0 mg/kg/injection, schedule: Q04DX002 (ip), vehicle: saline with Tween-80 96 % of control

C=C(CN(C)C)C(=O)c1cc(C)ccc1C
inactive: dose: 0.93 mg/kg/injection, schedule: Q01DX005 (ip), vehicle: saline 100 % of control | dose: 1.87 mg/kg/injection, schedule: Q01DX005 (ip), vehicle: saline 100 % of control | dose: 3.75 mg/kg/injection, schedule: Q01DX005 (ip), vehicle: saline 98 % of control

COc1ccc(CC(C)NCC(O)c2ccc(O)c(NC=O)c2)cc1 (centres undefined)
inactive: dose: 6.25 mg/kg/injection, schedule: Q01DX009 (ip), vehicle: saline 100 % of control | dose: 12.5 mg/kg/injection, schedule: Q01DX009 (ip), vehicle: saline 101 % of control | [1] 99 % of control | dose: 50.0 mg/kg/injection, schedule: Q01DX009 (ip), vehicle: suspension in saline 99 % of control | dose: 200.0 mg/kg/injection, schedule: Q01DX009 (ip), vehicle: suspension in saline 91 % of control

NC1(c2ccccc2)CC2CCC1C2 (centres undefined)
inactive: dose: 12.5 mg/kg/injection, schedule: Q01DX001 (ip), vehicle: Klucel (hydroxypropylcellulose) (HPC) 100 % of control | dose: 25.0 mg/kg/injection, schedule: Q01DX001 (ip), vehicle: Klucel (hydroxypropylcellulose) (HPC) 100 % of control | dose: 50.0 mg/kg/injection, schedule: Q01DX001 (ip), vehicle: Klucel (hydroxypropylcellulose) (HPC) 100 % of control

CCOC(=O)c1ccc(N=C/C(Cl)=C(/Cl)C(=O)O)cc1
inactive: dose: 3.12 mg/kg/injection, schedule: Q01DX009 (ip), vehicle: other 102 % of control | dose: 6.25 mg/kg/injection, schedule: Q01DX009 (ip), vehicle: other 92 % of control | dose: 12.5 mg/kg/injection, schedule: Q01DX009 (ip), vehicle: Klucel (hydroxypropylcellulose) (HPC) 92 % of control | dose: 12.5 mg/kg/injection, schedule: Q01DX009 (ip), vehicle: other 89 % of control

COc1ccc(/C=N/N2CN(C(C)C(=O)O)P(N(CCO)CCO)N=C2N)cc1OC (centres undefined)
inactive: dose: 60.0 mg/kg/injection, schedule: Q01DX005 (ip), vehicle: saline with Tween-80 104 % of control | dose: 120.0 mg/kg/injection, schedule: Q01DX005 (ip), vehicle: saline with Tween-80 99 % of control | dose: 240.0 mg/kg/injection, schedule: Q01DX005 (ip), vehicle: saline with Tween-80 99 % of control

CC1CC2=C(C(=O)c3ccccc3C2=O)C(C)O1 (centres undefined)
inactive: dose: 60.0 mg/kg/injection, schedule: Q01DX005 (ip), vehicle: saline 106 % of control | dose: 120.0 mg/kg/injection, schedule: Q01DX005 (ip), vehicle: saline 92 % of control | dose: 240.0 mg/kg/injection, schedule: Q01DX005 (ip), vehicle: saline 96 % of control

CCOC(=O)/C=C/c1nc(C(=O)OCC)c(C)c(=O)[nH]1
inactive: dose: 1.0 mg/kg/injection, schedule: Q01DX009 (ip), vehicle: other 120 % of control | dose: 2.0 mg/kg/injection, schedule: Q01DX009 (ip), vehicle: other 99 % of control | dose: 4.0 mg/kg/injection, schedule: Q01DX009 (ip), vehicle: other 99 % of control | dose: 8.0 mg/kg/injection, schedule: Q01DX009 (ip), vehicle: other 107 % of control | dose: 16.0 mg/kg/injection, schedule: Q01DX009 (ip), vehicle: other 104 % of control and 95 % of control | dose: 32.0 mg/kg/injection, schedule: Q01DX009 (ip), vehicle: other 95 % of control | dose: 64.0 mg/kg/injection, schedule: Q01DX009 (ip), vehicle: other 92 % of control | dose: 128.0 mg/kg/injection, schedule: Q01DX009 (ip), vehicle: other 95 % of control | dose: 200.0 mg/kg/injection, schedule: Q01DX009 (ip), vehicle: distilled water + Tween-80 99 % of control | dose: 256.0 mg/kg/injection, schedule: Q01DX009 (ip), vehicle: other 113 % of control | dose: 400.0 mg/kg/injection, schedule: Q01DX009 (ip), vehicle: distilled water + Tween-80 100 % of control

c1ccc(CN2CCC3(CC2)CO3)cc1
inactive: dose: 100.0 mg/kg/injection, schedule: Q01DX001 (ip), vehicle: Klucel (hydroxypropylcellulose) (HPC) 106 % of control | dose: 200.0 mg/kg/injection, schedule: Q01DX001 (ip), vehicle: Klucel (hydroxypropylcellulose) (HPC) 100 % of control

COc1cc2c(cc1OC)C(NC=O)CCC2 (centres undefined)
inactive: dose: 25.0 mg/kg/injection, schedule: Q01DX009 (ip), vehicle: other 101 % of control | dose: 50.0 mg/kg/injection, schedule: Q01DX009 (ip), vehicle: other 104 % of control | dose: 100.0 mg/kg/injection, schedule: Q01DX009 (ip), vehicle: other 100 % of control | dose: 200.0 mg/kg/injection, schedule: Q01DX009 (ip), vehicle: other 101 % of control | dose: 400.0 mg/kg/injection, schedule: Q01DX009 (ip), vehicle: other 86 % of control
